The source made the active and inactive calls.
Assays:
Streptokinase A = target: T1, Streptokinase A (Streptococcus pyogenes serotype M1, UniProt P10520); assay: viability-normalized secreted streptokinase activity reduction – plasminogen activation absorbance, OD405, dose response (AID 1914); format: functional, Streptococcus pyogenes M1 GAS;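 also: secreted streptokinase activity via plasminogen activation per viability signal from cell pellet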
T1 sequence (P10520 whole entry): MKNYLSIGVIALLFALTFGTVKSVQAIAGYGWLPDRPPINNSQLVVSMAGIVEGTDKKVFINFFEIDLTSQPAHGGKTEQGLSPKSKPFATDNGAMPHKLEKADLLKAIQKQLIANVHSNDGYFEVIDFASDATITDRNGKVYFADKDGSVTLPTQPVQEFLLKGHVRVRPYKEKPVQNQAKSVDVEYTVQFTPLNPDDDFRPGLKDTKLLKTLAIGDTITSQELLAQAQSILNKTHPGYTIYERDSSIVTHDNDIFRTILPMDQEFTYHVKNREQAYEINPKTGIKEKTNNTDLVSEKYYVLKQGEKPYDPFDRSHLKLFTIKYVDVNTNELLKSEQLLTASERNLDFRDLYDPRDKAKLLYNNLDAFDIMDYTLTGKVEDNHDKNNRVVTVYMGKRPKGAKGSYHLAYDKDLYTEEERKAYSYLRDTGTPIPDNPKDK

[1] = reduced cellular PGC1a acetyl-lysine signal – cell-based, cherry-picked samples, dose response (AID 720514); format: functional;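 also: potency may reflect raised or lowered acetylation signal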
Streptococcus = assay: GAS UMAA2166 growth inhibition – luminescence, BacTiterGlo, counter-screen for streptokinase expression inhibitor project, dose response (AID 1915); format: functional, organism-based;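 also: potency for reduction of bacterial viability or growth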
[2] = Luminescence Cell-Based Dose Retest to Confirm Inhibitors of Cancer Stem Cells. [Related pubchem assays (depositor defined):AID2717, AID2721]; format: functional; details: Homo sapiens
[3] = system: Streptococcus sp. 'group A'; assay: Streptococcus pyogenes SK(-)GAS viability under kanamycin – luminescence, BacTiterGlo, confirmation, counter-screen for streptokinase expression inhibitor project, dose response (AID 1900); format: functional, organism-based
Coagulation factor XII = target: T2, Coagulation factor XII (Homo sapiens, UniProt P00748); format: functional;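 also: activated factor XIIa alpha cleaving a fluorogenic AMC peptide substrate; inhibitor potency from loss of enzyme activity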
T2 sequence (P00748 whole entry): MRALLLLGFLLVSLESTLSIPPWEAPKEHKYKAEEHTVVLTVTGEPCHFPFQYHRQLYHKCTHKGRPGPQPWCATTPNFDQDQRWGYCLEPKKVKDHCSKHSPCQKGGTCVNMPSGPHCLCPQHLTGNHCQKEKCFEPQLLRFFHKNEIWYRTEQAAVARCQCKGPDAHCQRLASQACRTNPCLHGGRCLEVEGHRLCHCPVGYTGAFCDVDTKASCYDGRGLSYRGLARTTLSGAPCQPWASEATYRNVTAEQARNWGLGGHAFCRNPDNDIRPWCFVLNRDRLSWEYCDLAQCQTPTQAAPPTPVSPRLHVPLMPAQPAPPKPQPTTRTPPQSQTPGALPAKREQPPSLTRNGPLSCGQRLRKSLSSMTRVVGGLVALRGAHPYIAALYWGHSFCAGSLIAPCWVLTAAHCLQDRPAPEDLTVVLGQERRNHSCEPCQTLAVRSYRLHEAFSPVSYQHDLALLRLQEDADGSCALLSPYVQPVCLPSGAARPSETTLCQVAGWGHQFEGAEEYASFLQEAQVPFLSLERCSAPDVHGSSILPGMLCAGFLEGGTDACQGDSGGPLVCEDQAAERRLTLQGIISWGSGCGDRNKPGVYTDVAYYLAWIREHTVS

[4] = HIV-1 Vif–A3G interaction blockers – biochemical, TR-FRET, GST-Vif 1-94, biotin-A3G peptide, dose response retest, primary screen (AID 1117319); format: functional;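 also: TR-FRET signal of purified GST-Vif binding a biotinylated A3G peptide; inhibitors lower the FRET signal by blocking Vif and A3G binding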
[5] = M. tuberculosis H37Rv growth inhibitors, H37Rv strain (AID 1626); format: functional
Estrogen receptor beta [6] = target: T3, Estrogen receptor beta (Homo sapiens, UniProt Q92731); assay: blockers of SRC-3 recruitment to ERβ – biochemical, ELISA, streptavidin-HRP readout, orthogonal assay, confirmation (AID 1060)
Estrogen receptor beta [7] = target: T3, Estrogen receptor beta
[8] = general mammalian cell viability loss – inhibitor set, cherry-pick, set 2, cytotoxicity control for miR-122 modulator project, dose response (AID 720697); format: functional, cell-based
Protein skinhead-1 = target: T4, Protein skinhead-1 (Caenorhabditis elegans, UniProt P34707); format: functional
T4 sequence (P34707 whole entry): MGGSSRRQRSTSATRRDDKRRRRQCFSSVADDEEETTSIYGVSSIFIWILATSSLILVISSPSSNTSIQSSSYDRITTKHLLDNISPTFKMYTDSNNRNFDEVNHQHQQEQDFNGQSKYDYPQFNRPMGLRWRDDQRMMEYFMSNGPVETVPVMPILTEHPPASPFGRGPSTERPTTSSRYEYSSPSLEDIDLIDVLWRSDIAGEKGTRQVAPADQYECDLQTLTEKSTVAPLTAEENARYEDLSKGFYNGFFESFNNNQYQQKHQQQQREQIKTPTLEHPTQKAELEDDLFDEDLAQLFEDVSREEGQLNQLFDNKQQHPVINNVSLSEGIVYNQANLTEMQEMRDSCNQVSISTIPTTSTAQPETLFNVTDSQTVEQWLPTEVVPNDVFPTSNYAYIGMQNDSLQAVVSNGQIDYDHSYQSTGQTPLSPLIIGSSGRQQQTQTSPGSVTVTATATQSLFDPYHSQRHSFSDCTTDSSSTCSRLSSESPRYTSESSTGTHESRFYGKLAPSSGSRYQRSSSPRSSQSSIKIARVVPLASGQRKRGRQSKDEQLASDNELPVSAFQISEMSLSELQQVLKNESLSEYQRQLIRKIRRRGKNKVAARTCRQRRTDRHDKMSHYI

[9] = target: Voltage-dependent T-type calcium channel subunit alpha-1H (Homo sapiens, UniProt O95180); format: functional;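 also: channel activity triggered by adding a high calcium stimulation buffer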
Estrogen receptor = target: T5, Estrogen receptor (Homo sapiens, UniProt P03372);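 also: potency for inhibiting coactivator peptide recruitment to the receptor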
T5 sequence (P03372 whole entry): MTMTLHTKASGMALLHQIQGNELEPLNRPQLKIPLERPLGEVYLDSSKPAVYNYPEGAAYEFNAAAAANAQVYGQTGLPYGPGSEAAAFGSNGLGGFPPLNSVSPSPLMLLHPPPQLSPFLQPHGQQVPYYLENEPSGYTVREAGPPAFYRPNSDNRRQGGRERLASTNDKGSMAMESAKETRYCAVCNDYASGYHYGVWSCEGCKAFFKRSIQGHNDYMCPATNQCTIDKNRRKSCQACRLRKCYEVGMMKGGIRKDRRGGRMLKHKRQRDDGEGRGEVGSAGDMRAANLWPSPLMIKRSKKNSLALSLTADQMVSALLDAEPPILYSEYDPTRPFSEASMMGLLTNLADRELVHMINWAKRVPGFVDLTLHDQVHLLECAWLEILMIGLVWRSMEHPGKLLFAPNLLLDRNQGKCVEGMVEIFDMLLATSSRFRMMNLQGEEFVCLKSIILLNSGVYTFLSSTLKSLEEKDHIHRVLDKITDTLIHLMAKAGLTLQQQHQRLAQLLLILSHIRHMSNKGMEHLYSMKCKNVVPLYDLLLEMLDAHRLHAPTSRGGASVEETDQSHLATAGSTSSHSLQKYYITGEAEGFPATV

cells [10] = format: functional, cell-based
cells [11] = format: functional, cell-based; remark: listed apart in the source

T3 sequence (Q92731 whole entry): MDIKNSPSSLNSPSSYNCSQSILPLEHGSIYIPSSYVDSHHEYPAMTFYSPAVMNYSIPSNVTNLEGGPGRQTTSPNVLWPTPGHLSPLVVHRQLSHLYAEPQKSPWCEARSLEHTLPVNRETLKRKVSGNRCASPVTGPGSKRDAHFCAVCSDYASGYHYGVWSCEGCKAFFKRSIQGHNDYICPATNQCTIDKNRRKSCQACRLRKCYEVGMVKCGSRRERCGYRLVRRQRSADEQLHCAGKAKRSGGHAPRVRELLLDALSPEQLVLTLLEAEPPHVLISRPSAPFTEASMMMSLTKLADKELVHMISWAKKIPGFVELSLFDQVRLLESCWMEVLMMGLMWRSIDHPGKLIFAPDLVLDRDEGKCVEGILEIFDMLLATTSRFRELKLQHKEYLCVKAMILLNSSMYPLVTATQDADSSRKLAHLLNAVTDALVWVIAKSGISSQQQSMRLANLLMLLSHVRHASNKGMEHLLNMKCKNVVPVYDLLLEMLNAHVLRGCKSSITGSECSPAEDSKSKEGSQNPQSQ
Voltage-dependent T-type calcium channel subunit alpha-1H, sequence (O95180 whole entry): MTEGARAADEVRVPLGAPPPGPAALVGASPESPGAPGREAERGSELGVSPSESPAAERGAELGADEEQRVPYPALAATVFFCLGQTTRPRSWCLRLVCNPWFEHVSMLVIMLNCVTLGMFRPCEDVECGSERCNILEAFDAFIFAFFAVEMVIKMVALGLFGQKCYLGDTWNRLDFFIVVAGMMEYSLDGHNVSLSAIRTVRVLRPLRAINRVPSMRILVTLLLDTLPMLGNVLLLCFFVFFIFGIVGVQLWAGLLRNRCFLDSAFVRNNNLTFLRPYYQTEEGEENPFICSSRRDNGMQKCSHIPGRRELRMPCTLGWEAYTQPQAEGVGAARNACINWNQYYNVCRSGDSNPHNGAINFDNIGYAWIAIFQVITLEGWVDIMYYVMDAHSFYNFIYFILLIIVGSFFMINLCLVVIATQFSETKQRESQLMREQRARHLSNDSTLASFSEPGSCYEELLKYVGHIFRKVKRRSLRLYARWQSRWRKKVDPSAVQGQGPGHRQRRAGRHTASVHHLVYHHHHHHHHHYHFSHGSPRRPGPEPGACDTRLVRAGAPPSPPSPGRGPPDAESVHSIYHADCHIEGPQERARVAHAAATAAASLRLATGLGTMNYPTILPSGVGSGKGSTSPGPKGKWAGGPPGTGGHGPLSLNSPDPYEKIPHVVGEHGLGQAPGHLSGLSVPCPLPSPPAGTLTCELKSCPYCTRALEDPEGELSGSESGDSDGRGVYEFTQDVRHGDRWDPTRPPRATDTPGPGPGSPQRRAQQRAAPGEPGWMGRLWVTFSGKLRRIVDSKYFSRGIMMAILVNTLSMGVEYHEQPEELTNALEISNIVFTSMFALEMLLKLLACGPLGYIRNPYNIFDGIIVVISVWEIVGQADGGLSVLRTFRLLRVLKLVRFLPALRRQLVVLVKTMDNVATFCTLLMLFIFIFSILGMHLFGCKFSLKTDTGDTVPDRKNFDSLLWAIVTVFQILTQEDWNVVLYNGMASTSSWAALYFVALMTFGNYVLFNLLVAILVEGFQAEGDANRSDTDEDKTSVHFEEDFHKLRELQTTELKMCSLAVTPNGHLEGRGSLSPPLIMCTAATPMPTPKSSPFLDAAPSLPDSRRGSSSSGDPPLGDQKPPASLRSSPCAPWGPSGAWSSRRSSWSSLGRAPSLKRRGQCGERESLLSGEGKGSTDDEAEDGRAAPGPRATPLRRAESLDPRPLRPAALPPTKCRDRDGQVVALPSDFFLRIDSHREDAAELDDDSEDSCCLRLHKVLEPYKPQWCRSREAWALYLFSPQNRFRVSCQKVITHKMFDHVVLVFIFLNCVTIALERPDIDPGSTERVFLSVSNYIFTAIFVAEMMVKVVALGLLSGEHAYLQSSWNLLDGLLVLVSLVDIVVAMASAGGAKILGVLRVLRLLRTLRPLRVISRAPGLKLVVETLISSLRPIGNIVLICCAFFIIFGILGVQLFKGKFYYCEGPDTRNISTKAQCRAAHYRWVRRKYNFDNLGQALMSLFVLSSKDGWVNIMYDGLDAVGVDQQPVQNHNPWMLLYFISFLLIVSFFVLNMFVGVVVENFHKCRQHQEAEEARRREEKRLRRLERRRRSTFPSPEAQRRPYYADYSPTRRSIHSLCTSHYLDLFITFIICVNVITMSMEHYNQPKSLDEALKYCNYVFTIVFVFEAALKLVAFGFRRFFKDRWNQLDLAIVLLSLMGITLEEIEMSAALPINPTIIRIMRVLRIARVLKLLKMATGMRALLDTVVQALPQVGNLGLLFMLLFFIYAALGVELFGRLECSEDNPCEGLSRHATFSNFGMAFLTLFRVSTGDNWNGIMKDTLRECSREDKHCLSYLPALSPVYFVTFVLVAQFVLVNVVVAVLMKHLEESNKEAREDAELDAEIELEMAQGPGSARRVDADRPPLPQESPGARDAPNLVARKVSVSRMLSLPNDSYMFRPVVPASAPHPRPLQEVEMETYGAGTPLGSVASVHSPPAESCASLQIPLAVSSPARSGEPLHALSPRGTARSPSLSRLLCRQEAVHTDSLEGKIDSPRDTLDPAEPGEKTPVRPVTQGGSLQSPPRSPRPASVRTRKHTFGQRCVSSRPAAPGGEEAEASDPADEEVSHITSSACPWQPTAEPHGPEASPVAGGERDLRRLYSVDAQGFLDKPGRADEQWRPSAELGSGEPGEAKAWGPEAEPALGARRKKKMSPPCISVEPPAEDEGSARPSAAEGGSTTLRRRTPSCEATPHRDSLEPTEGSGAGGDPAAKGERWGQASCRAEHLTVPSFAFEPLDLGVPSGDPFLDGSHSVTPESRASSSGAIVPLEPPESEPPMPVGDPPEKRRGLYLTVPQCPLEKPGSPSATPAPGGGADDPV

## O=C(Nc1ccccc1)Nc1cc(Cl)cc(Cl)c1
Streptokinase A
  EC50: 16.8 µM (active)
[1]
  AC50: 17.2 µM (active)
Streptococcus
  EC50: 48.6 µM (active)
[2]
  AC50: 4.3 µM (active)
[3]
  EC50: 10.6 µM (active)

## Cc1cc(-n2ccnc2)n2c(nc3ccccc32)c1C#N
Coagulation factor XII
  IC50: > 50 µM (inactive)
[4]
  IC50: > 100 µM (active)

## Cc1ccc(NC(=O)C2CCCCC2C(=O)O)cc1Cl (configuration not stated)
[5]
  IC50: > 100 µM (active)

## O=C(/C=C/Nc1ccc(Oc2ccccc2Cl)cc1)c1ccco1
[5]
  IC50: > 100 µM (active)

## O=C(Cn1nnc(-c2ccc3c(c2)OCO3)n1)NCc1ccco1
Estrogen receptor beta [6]
  IC50: 3 µM (not active)
Estrogen receptor beta [7]
  IC50: 19.6 µM (active)

## O=C(Nc1ccc(Cl)c(C(F)(F)F)c1)c1ccco1
[8]
  AC50: 4.01 µM (active)
Protein skinhead-1
  IC50: 45 µM (active)
[9]
  EC50: 10.6 µM (active)

## Cn1nnnc1SCC(=O)NCc1cccc(C(=O)O)c1
[1]
  AC50: 10.5 µM (active)

## COc1ccc(CCNC(=O)c2ccc(CN3CCC(Cc4ccccc4)CC3)cc2)cc1
[5]
  IC50: > 100 µM (active)

## COc1cc(C2C(C#N)=C(N)Oc3cc(C)oc(=O)c32)cc2c1OCO2 (configuration not stated)
Estrogen receptor
  IC50: 26.2 µM (active)
Estrogen receptor beta [6]
  IC50: 9.24 µM (not active)
Estrogen receptor beta [7]
  IC50: 13.6 µM (active)

## CCOC(=O)C1CCCN(C(=O)c2ccc(CS(=O)(=O)c3ccc(Br)cc3)o2)C1 (configuration not stated)
[4]
  IC50: > 100 µM (active)

## CC(=O)Nc1ccc(NC(=O)Nc2ccccc2)cc1
Cells [10]
  EC50: > 29.9 µM (inactive)
Cells [11]
  IC50: > 29.9 µM (inactive)
